Here are results for 20 compounds from patent US9409952B2, “Peptide-compound cyclization method” (Chugai Seiyaku Kabushiki Kaisha, priority 2011, dated 2016).

Each structure is given as a SMILES string. Starred links: 1 amine or outer side, 2 acyl side, 3 side chain; linkers in the order of their positions; H or OH if unused. Positions of bridges follow the written chain, without caps; N, C: chain ends. Non-standard residues stand in square brackets, D forms with d. Residues, ends and D or L forms follow the SMILES beside them. *: point of attachment. Phe(4-(CH2)5CO) = O=C([C@H](Cc1ccc(CCCCCC(=O)[*:3])cc1)N[*:1])[*:2]; Phe(3-(CH2)4CO) = O=C([C@H](Cc1cccc(CCCCC(=O)[*:3])c1)N[*:1])[*:2]; Tyr(3-F) = N[C@@H](Cc1ccc(O)c(F)c1)C(=O)O; NMeF = CN[C@@H](Cc1ccccc1)C(=O)O; NMeI = CC[C@H](C)[C@H](NC)C(=O)O; AllylGly = C=CC[C@H](N)C(=O)O; NMeL = CN[C@@H](CC(C)C)C(=O)O; NMeV = CN[C@H](C(=O)O)C(C)C; NMeA = CN[C@@H](C)C(=O)O; Piperidide = C1CCN(*)CC1; Aze = O=C(O)[C@@H]1CCN1; β3hA = C[C@H](N)CC(=O)O; Sar = CNCC(=O)O; tBu = CC(C)(C)*

The nature of one series: Metabolic stability in human hepatic microsome. The class given is in vitro ADME.
Settings: not given
With `CC(C)C[C@H]1C(=O)N[C@@H](COC(C)(C)C)C(=O)N[C@H](C(=O)N2CCCCC2)CCC(=O)N(C)[C@@H](C)C(=O)N(C)[C@@H](C)C(=O)N(C)[C@@H](Cc2ccccc2)C(=O)N(C)[C@@H](CC(C)C)C(=O)N[C@@H]([C@@H](C)O)C(=O)N(C)CC(=O)N1C` [Compound P-122, MeAla-MeAla-MePhe-MeLeu-Thr-MeGly-MeLeu-Ser(tBu)-Glu-piperidine] ([NMeA][NMeA][NMeF][NMeL]T[Sar][NMeL]S(tBu)E-Piperidide; lactam N-9), the “Hepatic microsome CLhint (Human) In the absence of NADPH” value was 1 ul/min/mg Protein.

Staying with this series, now noted: human, microsomes, pH 7.4, CL NADPH(+).
For `CC[C@H](C)[C@@H]1NC(=O)[C@H](Cc2ccccc2)N(C)C(=O)[C@H](Cc2ccccc2)N(C)C(=O)[C@H](CC(C)C)N(C)C(=O)[C@H](CC(C)C)NC(=O)[C@H](CC(C)C)N(C)C(=O)[C@H](C)N(C)C(=O)[C@H]([C@@H](C)O)NC(=O)[C@H](C)NC(=O)C[C@@H](C(=O)N2CCCCC2)NC(=O)[C@H](C(C)C)N(C)C(=O)[C@@H]2CCCN2C1=O` [DP-12] (AT[NMeA][NMeL]L[NMeL][NMeF][NMeF]IP[NMeV]D-Piperidide; lactam N-12), the microsomal CLint at 1 uM is 32 µL/min/mg.

In turn, `CC[C@H](C)[C@@H]1NC(=O)[C@H](CC(C)C)N(C)C(=O)[C@H](CC(C)C)N(C)C(=O)[C@H](C)NC(=O)[C@H](CC(C)C)N(C)C(=O)[C@H](Cc2ccccc2)NC(=O)[C@H]([C@@H](C)O)NC(=O)[C@H](CC(C)C)N(C)C(=O)[C@H](CC(C)C)N(C)C(=O)[C@H](C)N(C)C(=O)C[C@H](C)NC1=O` [DP-772] (cyclo(A[NMeL][NMeL]I[β3hA][NMeA][NMeL][NMeL]TF[NMeL])) showed a microsomal CLint at 1 uM of 153 µL/min/mg.

With `CC[C@H](C)[C@H]1C(=O)N2CCC[C@H]2C(=O)N(C)CC(=O)N[C@@H]([C@@H](C)O)C(=O)N[C@H](C(=O)N2CCCCC2)CC(=O)N[C@@H](C)C(=O)N[C@@H](C(C)C)C(=O)N(C)[C@@H](CC(C)C)C(=O)N(C)[C@@H](CC(C)C)C(=O)N(C)[C@@H](Cc2ccccc2)C(=O)N[C@@H](Cc2ccccc2)C(=O)N1C` [DP-15] (AV[NMeL][NMeL][NMeF]F[NMeI]P[Sar]TD-Piperidide; lactam N-11), the microsomal CLint at 1 uM amounted to 34 µL/min/mg.

Compound `CC[C@H](C)[C@@H]1NC(=O)[C@H](CC(C)C)N(C)C(=O)CNC(=O)[C@H](C)NC(=O)C[C@@H](C(=O)N2CCCCC2)NC(=O)[C@@H]2CCCN2C(=O)[C@H](CC(C)C)NC(=O)[C@H](Cc2ccccc2)NC(=O)[C@H]([C@@H](C)O)NC(=O)[C@H](Cc2ccccc2)N(C)C(=O)[C@H](C)N(C)C1=O` [DP-30] (AG[NMeL]I[NMeA][NMeF]TFLPD-Piperidide; lactam N-11) registered a microsomal CLint at 1 uM of 63 µL/min/mg.

In the case of `CC(C)C[C@@H]1NC(=O)[C@H](CC(C)C)N(C)C(=O)[C@H](C)N(C)C(=O)[C@H](C(C)C)NC(=O)[C@H](Cc2ccccc2)NC(=O)CNC(=O)[C@H]([C@@H](C)O)NC(=O)[C@H](CC(C)C)NC(=O)[C@@H]2CCCN2C(=O)[C@H](Cc2ccccc2)NC(=O)[C@H](C)NC(=O)C[C@@H](C(=O)N2CCCCC2)NC1=O` [DP-23] (AFPLTGFV[NMeA][NMeL]LD-Piperidide; lactam N-12), the microsomal CLint at 1 uM was 105 µL/min/mg.

The same series, now with this note: human, microsomes, pH 7.4, Hepatic microsome CLhint (Human) In the presence of NADPH.
For `CC(C)C[C@H]1C(=O)N[C@@H](COC(C)(C)C)C(=O)N[C@H](C(=O)N2CCCCC2)CCC(=O)N(C)[C@@H](C)C(=O)N(C)[C@@H](C)C(=O)N(C)[C@@H](Cc2ccccc2)C(=O)N(C)[C@@H](CC(C)C)C(=O)N[C@@H]([C@@H](C)O)C(=O)N(C)CC(=O)N1C` [Compound P-122, MeAla-MeAla-MePhe-MeLeu-Thr-MeGly-MeLeu-Ser(tBu)-Glu-piperidine] ([NMeA][NMeA][NMeF][NMeL]T[Sar][NMeL]S(tBu)E-Piperidide; lactam N-9), the microsomal CLint at 1 uM turned out to be 11 µL/min/mg.

Staying with this series, now noted: microsomes, pH 7.4; human hepatic microsome, NADPH(+); read-out: CL NADPH(+).
With `CC[C@H](C)[C@@H]1NC(=O)[C@H](Cc2ccccc2)N(C)C(=O)[C@@H](C)NC(=O)C[C@@H](C(=O)N2CCCCC2)NC(=O)[C@H](C(C)C)NC(=O)CN(C)C(=O)[C@H]([C@@H](C)O)NC1=O` [DP-674] ([dA][NMeF]IT[Sar]VD-Piperidide; lactam N-7), the microsomal CLint at 1 uM worked out at 10 µL/min/mg.

On to `CC[C@H](C)[C@H](NC(=O)[C@H](CC(C)C)NC(=O)[C@H](CC(C)C)N(C)C(=O)[C@@H]1CC(=O)N[C@H](C(C)C)C(=O)N[C@@H](CC(C)C)C(=O)N(C)[C@@H](CC(C)C)C(=O)N[C@@H]([C@@H](C)O)C(=O)N[C@@H](C(C)C)C(=O)N(C)[C@@H](CC(C)C)C(=O)N(C)[C@@H](Cc2ccccc2)C(=O)N1)C(=O)N1CCCCC1` [DP-933] ([dV]L[NMeL]TV[NMeL][NMeF]D[NMeL]LI-Piperidide; lactam N-8), for which the microsomal CLint at 1 uM was determined as 43 µL/min/mg.

Consider `CC(C)C[C@@H]1NC(=O)[C@H](CC(C)C)N(C)C(=O)[C@H](Cc2ccccc2)NC(=O)[C@H](C)N(C)C(=O)C[C@@H](C(=O)N2CCCCC2)NC(=O)[C@H](Cc2ccccc2)NC(=O)[C@@H]2CCCN2C(=O)[C@H]([C@@H](C)O)NC(=O)[C@H](CC(C)C)N(C)C(=O)CNC(=O)[C@@H]2CCN2C1=O` [DP-554] ([NMeA]F[NMeL]L[Aze]G[NMeL]TPFD-Piperidide; lactam N-11), for which the microsomal CLint at 1 uM is 80 µL/min/mg.

Take `CC[C@H](C)[C@H]1C(=O)N[C@@H](COC(C)(C)C)C(=O)N[C@H](C(=O)N2CCCCC2)Cc2ccc(cc2)CCCCCC(=O)N(C)[C@@H](Cc2ccccc2)C(=O)N(C)CC(=O)N(C)[C@@H](CC(C)C)C(=O)N[C@@H]([C@@H](C)O)C(=O)N(C)[C@@H](C)C(=O)N(C)[C@@H](CC(C)C)C(=O)N1C` [DP-832] ([NMeF][Sar][NMeL]T[NMeA][NMeL][NMeI]S(tBu)[Phe(4-(CH2)5CO)]-Piperidide; lactam N-9): the microsomal CLint at 1 uM worked out at 850 µL/min/mg.

Consider `CC[C@H](C)[C@H](NC(=O)[C@H](CC(C)C)N(C)C(=O)[C@H](CC(C)C)NC(=O)[C@@H]1CC(=O)N[C@@H](C)C(=O)N(C)[C@@H](Cc2ccccc2)C(=O)N(C)[C@@H](CC(C)C)C(=O)N(C)[C@@H](CC(C)C)C(=O)N[C@@H](Cc2ccccc2)C(=O)N[C@@H]([C@@H](C)O)C(=O)N[C@@H](C(C)C)C(=O)N1)C(=O)N1CCCCC1` [DP-934] (A[NMeF][NMeL][NMeL]FTVDL[NMeL]I-Piperidide; lactam N-8), for which the microsomal CLint at 1 uM was determined as 143 µL/min/mg.

Turning to `CC(C)C[C@@H]1NC(=O)[C@H](CC(C)C)N(C)C(=O)[C@H](C)N(C)C(=O)[C@H](Cc2ccc(O)c(F)c2)NC(=O)[C@H](Cc2ccccc2)N(C)C(=O)[C@H]([C@@H](C)O)NC(=O)[C@H](CC(C)C)N(C)C(=O)[C@H](Cc2ccccc2)NC(=O)[C@H](C)NC(=O)C[C@@H](C(=O)N(C)[C@@H](Cc2ccccc2)C(=O)N[C@@H](C)C(=O)N2CCCCC2)NC1=O` [DP-606] (AF[NMeL]T[NMeF][Tyr(3-F)][NMeA][NMeL]LD[NMeF]A-Piperidide; lactam N-10), the microsomal CLint at 1 uM is 70 µL/min/mg.

Regarding `C=CC[C@@H]1NC(=O)[C@H](Cc2ccccc2)N(C)C(=O)[C@H]([C@@H](C)O)NC(=O)[C@H](CC(C)C)N(C)C(=O)[C@H](Cc2ccccc2)NC(=O)[C@H](C)NC(=O)C[C@@H](C(=O)N(C)[C@@H](Cc2ccccc2)C(=O)N[C@@H](C)C(=O)N2CCCCC2)NC(=O)[C@H](CC(C)C)NC(=O)[C@H](CC(C)C)N(C)C(=O)[C@H](C)N(C)C1=O` [DP-612] (AF[NMeL]T[NMeF][AllylGly][NMeA][NMeL]LD[NMeF]A-Piperidide; lactam N-10), the microsomal CLint at 1 uM worked out at 155 µL/min/mg.

`CC[C@H](C)[C@@H]1NC(=O)[C@H](CC(C)C)N(C)C(=O)[C@H](Cc2ccccc2)N(C)C(=O)CCCCCc2ccc(cc2)C[C@@H](C(=O)N2CCCCC2)NC(=O)[C@H](CC(C)C)N(C)C(=O)[C@H](C)N(C)C(=O)[C@H]([C@@H](C)O)NC(=O)[C@H](Cc2ccccc2)N(C)C(=O)[C@H](C)N(C)C1=O` [DP-835] ([NMeF][NMeL]I[NMeA][NMeF]T[NMeA][NMeL][Phe(4-(CH2)5CO)]-Piperidide; lactam N-9): the microsomal CLint at 1 uM was found to be 497 µL/min/mg.

As for `C=C1CCC(=O)N[C@@H](CC(C)C)C(=O)N2CCC[C@H]2C(=O)N(C)[C@@H](C(C)C)C(=O)N[C@@H](Cc2ccccc2)C(=O)N(C)[C@@H](Cc2ccccc2)C(=O)N(C)[C@@H](CC(C)C)C(=O)N[C@@H](C)C(=O)N(C)[C@@H]([C@@H](C)CC)C(=O)N[C@H](C(=O)N2CCCCC2)Cc2cccc1c2` [DP-870], the microsomal CLint at 1 uM was found to be 474 µL/min/mg.

For the compound `CC(C)C[C@@H]1NC(=O)[C@H](CC(C)C)N(C)C(=O)[C@H](CC(C)C)N(C)C(=O)[C@H](C)NC(=O)[C@H](Cc2ccccc2)N(C)C(=O)[C@H](CCC(=O)N(C)C)NC(=O)[C@H](CC(C)C)N(C)C(=O)[C@H](Cc2ccccc2)NC(=O)[C@H](C)NC(=O)C[C@@H](C(=O)N(C)[C@@H](Cc2ccccc2)C(=O)N[C@@H](C)C(=O)N2CCCCC2)NC1=O` [DP-603] (AF[NMeL]E(NMe2)[NMeF]A[NMeL][NMeL]LD[NMeF]A-Piperidide; lactam N-10), the microsomal CLint at 1 uM was found to be 17 µL/min/mg.

As to `CC[C@H](C)[C@H]1C(=O)N[C@@H]([C@@H](C)O)C(=O)N(C)CC(=O)N(C)[C@@H](CC(C)C)C(=O)N[C@H](C(=O)N2CCCCC2)Cc2cccc(c2)CCCCC(=O)N[C@@H](CC(C)C)C(=O)N(C)[C@@H](CC(C)C)C(=O)N(C)[C@@H](Cc2ccccc2)C(=O)N[C@@H](C)C(=O)N(C)[C@@H](Cc2ccccc2)C(=O)N1C` [DP-857] (L[NMeL][NMeF]A[NMeF][NMeI]T[Sar][NMeL][Phe(3-(CH2)4CO)]-Piperidide; lactam N-10), the microsomal CLint at 1 uM was determined as 284 µL/min/mg.

For `C=C1CCC(=O)N[C@@H](C(C)C)C(=O)N(C)[C@@H](CC(C)C)C(=O)N(C)CC(=O)N(C)[C@@H](CC(C)C)C(=O)N(C)[C@@H]([C@@H](C)CC)C(=O)N[C@@H](C)C(=O)N(C)[C@@H](Cc2ccccc2)C(=O)N(C)[C@@H](Cc2ccccc2)C(=O)N[C@@H]([C@@H](C)O)C(=O)N(C)[C@@H](CC(C)C)C(=O)N2CCC[C@H]2C(=O)N[C@H](C(=O)N2CCCCC2)Cc2cccc1c2` [DP-899], the microsomal CLint at 1 uM was found to be 32 µL/min/mg.

For `CC(C)C[C@@H]1NC(=O)[C@H](Cc2ccccc2)NC(=O)[C@H](CC(C)C)N(C)C(=O)[C@H](Cc2ccccc2)NC(=O)CCCCCc2ccc(cc2)C[C@@H](C(=O)N2CCCCC2)NC(=O)[C@H](Cc2ccccc2)N(C)C(=O)CNC(=O)[C@H]([C@@H](C)O)NC(=O)[C@H](CC(C)C)NC1=O` [DP-842] (F[NMeL]FLLTG[NMeF][Phe(4-(CH2)5CO)]-Piperidide; lactam N-9), the microsomal CLint at 1 uM amounted to 135 µL/min/mg.

Take `C=C1CCC(=O)N[C@@H](CC(C)C)C(=O)N(C)[C@@H](CC(C)C)C(=O)N(C)[C@@H](Cc2ccccc2)C(=O)N[C@@H](C)C(=O)N(C)[C@@H](Cc2ccccc2)C(=O)N(C)[C@@H]([C@@H](C)CC)C(=O)N[C@@H]([C@@H](C)O)C(=O)N(C)CC(=O)N(C)[C@@H](CC(C)C)C(=O)N[C@H](C(=O)N2CCCCC2)Cc2ccc1cc2` [DP-854]: the microsomal CLint at 1 uM amounted to 252 µL/min/mg.
